Experimental data as given in patent US20090311246A1, “Method of Enhancing Remyelination in Demyelinating Diseases of the Central Nervous System” (priority 2008, published 2009).

B1: rMOG: recombinant MOG (protein, UniProt Q16653 30-247, looked up)
Myelin-oligodendrocyte …: GQFRVIGPRHPIRALVGDEVELPCRISPGKNATGMEVGWYRPPFSRVVHLYRNGKDQDGDQAPEYRGRTELLKDAIGEGKVTLRIRNVRFSDEGGFTCFFRDHSYQEEAAMELKVEDPFYWVSPGVLVLLAVLPVLLLQITVGLIFLCLQYRLRGKLRAEIENLHRTFDPHFLRVPCWKITLFVIVPVLGPLVALIICYNWLHRRLAGQFLEELRNPF
B2: MOG Protein: myelin oligodendrocyte glycoprotein (protein, UniProt Q16653 30-247, looked up)
Myelin-oligodendrocyte …: B1 Myelin-oligodendrocyte …
B3: Bovine MBP: bovine myelin basic protein (protein)
chain: AAQKRPSQRSKYLASASTMDHARHGFLPRHRDTGILDSLGRFFGSDRGAPKRGSGKDGHHAARTTHYGSLPQKAQGHRPQDENPVVHFFKNIVTPRTPPPSQGKGRGLSLSRFSWGAEGQKPGFGYGGRASDYKSAHKGLKGHDAQGTLSKIFKLGGRDSRSGSPMARR
B4: MBP Protein: myelin basic protein (protein, UniProt P02686 1-304, looked up)
Myelin basic protein: MGNHAGKRELNAEKASTNSETNRGESEKKRNLGELSRTTSEDNEVFGEADANQNNGTSSQDTAVTDSKRTADPKNAWQDAHPADPGSRPHLIRLFSRDAPGREDNTFKDRPSESDELQTIQEDSAATSESLDVMASQKRPSQRHGSKYLATASTMDHARHGFLPRHRDTGILDSIGRFFGGDRGAPKRGSGKDSHHPARTAHYGSLPQKSHGRTQDENPVVHFFKNIVTPRTPPPSQGKGRGLSLSRFSWGAEGQRPGFGYGGRASDYKSAHKGFKGVDAQGTLSKIFKLGGRDSRSGSPMARR

Tests used:
[1] = tested on: sera from SFV-infected B6 mice; assay type: binding; conditions: for Dh / D0 (Ratio): OD of highest day (day 15 or 21) over day 0, SFV-infected sera; for Dh−D0 (difference): OD of highest day minus day 0, SFV-infected sera; for Net change in the levels of antibody (ΔOD), D7-9 / Net change in the levels of antibody (ΔOD), D14-16 / Net change in the levels of antibody (ΔOD), D21-23 / Net change in the levels of antibody (ΔOD), D31-35: SFV-infected mice sera, day 0 OD subtracted; for Net change in the levels of antibody (ΔOD), D7-9: days 7-9 pi; for Net change in the levels of antibody (ΔOD), D14-16: days 14-16 pi; for Net change in the levels of antibody (ΔOD), D21-23: days 21-23 pi; for Net change in the levels of antibody (ΔOD), D31-35: days 31-35 pi; for Reactivity of sera from SFV-infected B6 mice with the antigen in ELISA: vs day 0
Description: To measure the antibody response of both WT and γδ KO mice against SFV and two of the peptides of the SFV envelope protein, E2, an indirect ELISA was performed. Sera were pooled from 4-6 SFV-infected WT, and 3 KO, mice on days 0, 7, 14, 21 and 35 pi. Briefly, Immunolon 2HB 96 well microtiter plates (VWR, Bridge Port, N.J.) were coated with 1 μg/well of each antigen in 100 μl/well carbonate buffer overnight at room temperature. After washing, the plates were blocked and serum samples were added. […] After washing, biotinylated goat anti-mouse Igs (BD Pharmingen, Torreyana, Calif.), Strepavidin conjugated to Horse Radish Peroxidase (Vector Laboratories, Burlingame, Calif.), and OPD substrate (Sigma, St. Louis, Mo.) were used, as previously described (4, 9). […] Values were considered to be positive when they were >0.3 OD units and exceeded the mean value plus three standard deviations for antibody response on day 0 pi of mice of the same strain. […]
In some instances day 0 OD values were high, thus making the differences appear small. Therefore, to account for such discrepancy, we also determined the ratio of the highest day (day 15 or 21) over day 0.

[2] = tested on: Rabbit Anti-SFV polyclonal antibody; experiment: Indirect ELISA of rabbit anti-SFV polyclonal IgG against viral and myelin antigens; assay type: binding; conditions: for Rabbit Anti-SFV Ab, OD at 490 nm: 10^−2 diluted, indirect ELISA; for Immunoreactivity of IgG fraction of serum from rabbits immunized with UV-inactivated SFV: ELISA; for OD Difference: Rabbit Anti-SFV Ab minus Normal Rabbit Serum
Description: The total IgG fraction was commercially prepared (Strategic Biosolutions, Ramona, Calif.) from pooled sera of 3 rabbits immunized once with UV-inactivated SFV (A774 strain) emulsified in CFA and boosted 3 times with antigen in IFA at weeks 3, 5, and 7. The IgG fraction of the pooled antisera was purified by ion-exchange chromatography and contained 8.7 mg IgG/ml of PBS. Antibody activities to SFV and peptides of SFV, to E2, and to recombinant ® MOG and its peptides were confirmed by ELISA. Normal rabbit IgG, isolated from pooled normal rabbit sera by ion-exchange chromatography (Signa Chemical Co., St. Louis, Mo.), was dissolved in saline. Protein concentration was determined by the Bradford assay (Sigma), using normal rabbit IgG as the standard. The IgG solutions were diluted to 3 mg protein/ml in saline and sterilized by passage through a 0.22 μm filter (Millipore Corp., Bedford, Mass.).
To measure the antibody response of both WT and γδ KO mice against SFV and two of the peptides of the SFV envelope protein, E2, an indirect ELISA was performed. Sera were pooled from 4-6 SFV-infected WT, and 3 KO, mice on days 0, 7, 14, 21 and 35 pi. Briefly, Immunolon 2HB 96 well microtiter plates (VWR, Bridge Port, N.J.) were coated with 1 μg/well of each antigen in 100 μl/well carbonate buffer overnight at room temperature. After washing, the plates were blocked and serum samples were added. […] After washing, biotinylated goat anti-mouse Igs (BD Pharmingen, Torreyana, Calif.), Strepavidin conjugated to Horse Radish Peroxidase (Vector Laboratories, Burlingame, Calif.), and OPD substrate (Sigma, St. Louis, Mo.) were used, as previously described (4, 9). […] Values were considered to be positive when they were >0.3 OD units and exceeded the mean value plus three standard deviations for antibody response on day 0 pi of mice of the same strain.
The polyclonal rabbit anti SFV antibody was commercially prepared (Strategic Biosolutions, Ramona, Calif.) from pooled sera of 3 rabbits, immunized once with UV-inactivated SFV (A774 strain) emulsified in CFA and boosted 3 times with antigen in IFA at weeks 3, 5, and 7.

Normal Rabbit Serum = experiment: Indirect ELISA of normal rabbit serum/IgG against viral and myelin antigens; assay type: binding; conditions: 10^−2 diluted
[3] = tested on: sera from SFV-infected WT and γδ KO mice; experiment: ELISA of sera from SFV-infected WT and γδ KO mice against SFV, E2 peptides, PPD and rMOG; assay type: binding
B6 mice = conditions: ref. (4); cited from earlier work

Molecule	Dh / D0 (Ratio) [1]	Dh−D0 (difference) [1]	Net change in the levels of antibody (ΔOD), D7-9 [1]	Net change in the levels of antibody (ΔOD), D14-16 [1]	Net change in the levels of antibody (ΔOD), D21-23 [1]	Net change in the levels of antibody (ΔOD), D31-35 [1]	Reactivity of sera from SFV-infected B6 mice with the antigen in ELISA [1]	Rabbit Anti-SFV Ab, OD at 490 nm [2]	OD Difference [2]	Normal Rabbit Serum, OD at 490 nm (Normal Rabbit Serum)	also measured
DEAELPSRISPGKNA [MOG 18-32]	3.2	0.919	0.34 ± 0.31 ΔOD	0.75 ± 0.23 ΔOD	0.91 ± 0.15 ΔOD	0.91 ± 0.36 ΔOD	reacted significantly	0.907 OD	0.647 OD	0.260 OD	Immunoreactivity of IgG fraction of serum from rabbits immunized with UV-inactivated SFV [2]: Cross-reactivity
EGVNDNEEGFFSAR [FB, Fibrinopeptide B, 1-14, negative control peptide]	1.26	0.068	0.06 ± 0.07 ΔOD	0.05 ± 0.07 ΔOD	0.05 ± 0.08 ΔOD	0.08 ± 0.09 ΔOD	–	–	–	–	–
GKDSHTRTTHYGS [MBP 56-68, mouse MBP 56-68 peptide, mimicked by E2 137-151]	5.37	0.824	1.10 ± 0.04 ΔOD	0.83 ± 0.10 ΔOD	1.07 ± 0.12 ΔOD	0.55 ± 0.18 ΔOD	reacted significantly	0.852 OD	0.691 OD	0.195 OD	Immunoreactivity of IgG fraction of serum from rabbits immunized with UV-inactivated SFV [2]: Cross-reactivity
H-IQDTRNAVRACRIQYHHD-OH [E2 115-129, reference compound]	5.28	0.458	0.82 ± 0.40 ΔOD	0.91 ± 0.14 ΔOD	0.95 ± 0.22 ΔOD	0.85 ± 0.07 ΔOD	reacted	–	–	–	Net change in the level of antibody, D0 WT ([3]; WT mice, day 0): 0 nano gr; Net change in the level of antibody, D7 WT ([3]; WT mice, day 7 pi, ± SD): 69 ± 29 nano gr; Net change in the level of antibody, D14 WT ([3]; WT mice, day 14 pi, ± SD): 83 ± 16 nano gr; Net change in the level of antibody, D21 WT ([3]; WT mice, day 21 pi, ± SD): 90 ± 20 nano gr; Net change in the level of antibody, D35 WT ([3]; WT mice, day 35 pi, ± SD): 73 ± 14 nano gr; Net change in the level of antibody, D0 KO ([3]; γδ KO mice, day 0): 0 nano gr; Net change in the level of antibody, D7 KO ([3]; γδ KO mice, day 7 pi, ± SD): 65 ± 35 nano gr; Net change in the level of antibody, D14 KO ([3]; γδ KO mice, day 14 pi, ± SD): 34 ± 24 nano gr; Net change in the level of antibody, D21 KO ([3]; γδ KO mice, day 21 pi, ± SD): 55 ± 20 nano gr; Net change in the level of antibody, D35 KO ([3]; γδ KO mice, day 35 pi, ± SD): 29 ± 22 nano gr; Reactivity of sera from SFV-infected γδ KO mice ([3]; γδ KO, sera 1:80): lower, but not significantly different than WT; Histopathology after inoculation with the peptide (literature) (B6 mice): induced vaccuolation in myelin
NH2-MEVGWYRSPFSRVVHLYRNGK-OH (H-MEVGWYRSPFSRVVHLYRNGK-OH) [MOG 35-55, myelin oligodendrocyte glycoprotein (MOG) peptide 35-55]	5.11	0.362	055 ± 0.08 ΔOD	0.78 ± 0.08 ΔOD	0.82 ± 0.05 ΔOD	0.78 ± 0.07 ΔOD	–	0.184 OD	0.177 OD	0.007 OD	–
THYGSLPQKSQR (GSGKDSHTRTTH) [MBP 64-75, myelin basic protein peptide 64-75]	2.93	0.375	–	–	–	–	–	–	–	–	–
B1	–	–	–	–	–	–	–	0.359 OD	0.146 OD	0.213 OD	Reactivity of sera from both SFV-infected WT and KO groups ([3]; WT and KO, days 7 to 35 pi): twice as the background level
B2	4.1	0.89	0.47 ± 0.21 ΔOD	0.84 ± 0.18 ΔOD	0.91 ± 0.11 ΔOD	0.96 ± 0.07 ΔOD	reacted significantly	–	–	–	–
B3	–	–	–	–	–	–	–	0.622 OD	0.339 OD	0.283 OD	–
B4	2.42	0.967	0.53 ± 0.11 ΔOD	1.04 ± 0.24 ΔOD	1.12 ± 0.31 ΔOD	1.00 ± 0.32 ΔOD	reacted significantly	–	–	–	–
